One test deals with HUVEC. Put plainly: Antivascular activity against HUVEC after 24 hrs by xCELLigence assays. The class given is functional, cell-based. As to conditions: Homo sapiens.
The subject of test [1] is SK-OV-3. The test can be described thus: Growth inhibition of human SKOV3 cells after 48 hrs by SRB assay. The class given is functional, cell-based. As to conditions: SK-OV-3, 48 h. A general note: The SRB assay estimates cell density from bound dye.
For test [2], the system named is SK-OV-3. Put plainly: Cell cycle arrest in human SKOV3 cells assessed as accumulation at G2/M phase at 5 nM by FACS analysis. The class given is functional.
Test [3] is described as follows: Inhibition of tubulin polymerization.
The next test concerns HT-29. The test can be described thus: Growth inhibition of combretastatin-resistant human HT-29 cells after 48 hrs by SRB assay. The class given is functional, cell-based. Conditions: HT-29, 48 h.
Test [4] concerns SK-OV-3. Put plainly: Growth inhibition of paclitaxel-resistant human SKOV3 cells after 48 hrs by SRB assay. The class given is functional, cell-based. As to conditions: SK-OV-3, 48 h.
The next test is filed under the species Bos taurus. Put plainly: Inhibition of purified bovine tubulin polymerization at 5 uM measured 30 secs intervals for 60 mins by spectrophotometer analysis relative to control.
Test [5] relates to SK-OV-3. The test can be described thus: Cell cycle arrest in human SKOV3 cells assessed as accumulation at sub-G1 phase at 5 nM by FACS analysis. The class given is functional. Background: In flow cytometry, cells or beads pass a laser one at a time.
The subject of the next test is MRC5. The test can be described thus: Growth inhibition of human MRC5 cells after 48 hrs by SRB assay. Conditions: MRC5, 48 h. The class given is cell-based.
Another test relates to DLD-1. Put plainly: Growth inhibition of human DLD1 cells after 48 hrs by SRB assay. Conditions: DLD-1, 48 h. The class given is functional, cell-based.
For another test, the system named is PC-3. The test can be described thus: Growth inhibition of human PC3 cells after 48 hrs by SRB assay. The class given is functional, cell-based. Conditions: PC-3, 48 h.
A further test relates to A549. The test can be described thus: Growth inhibition of human A549 cells after 48 hrs by SRB assay. The class given is functional, cell-based. As to conditions: A549, 48 h.
The subject of the next test is MCF7. The test can be described thus: Growth inhibition of human MCF7 cells after 48 hrs by SRB assay. The class given is functional, cell-based. Conditions: MCF7, 48 h.

Molecules are shown by their SMILES.

A word on the IC50: it is the midpoint of a concentration-inhibition curve. A lower IC50 goes with greater potency in that assay. Regarding `COc1ccc(/C=C\c2cc(I)c(OC)c(I)c2)cc1O`, the half-inhibitory concentration (IC50) in the test on HUVEC was 1.9 nM; in the test on SK-OV-3 [1], 5 nM. The Activity with SK-OV-3 [2] is given as 84%.
Turning to `COc1ccc(-c2nnnn2-c2cc(OC)c(OC)c(OC)c2)cc1N`, in test [3], 2000 nM corresponded to half-maximal inhibition (IC50).
As to `COc1ccc(/C=C\c2cc(OC)c(OC)c(OC)c2)cc1O` [COMBRETASTATIN A4], the IC50 in the test on HT-29 is 538 nM; in the test with SK-OV-3 [4], 4.2 nM; in the test with MRC5 it was 2.8 nM; in the test on DLD-1, 3.3 nM; with PC-3, 2.9 nM; in the test with A549, 7.9 nM. In the test with MCF7, this molecule returned an IC50 of 3 nM. Moreover, the fold change (FC) in the test listed under Bos taurus is 3. Besides, the Activity is <5% with SK-OV-3 [5] and 31% with SK-OV-3 [2].
As for `COc1ccc(-c2nnnn2-c2cc(OC)c(OC)c(OC)c2)cc1O`, the half-maximal inhibitory concentration (IC50) was > 500 nM in the test on HT-29; 11 nM in the test on SK-OV-3 [4]; 13.6 nM in the test with HUVEC; 9.5 nM in the test with SK-OV-3 [1]; 12 nM in the test on MRC5; 24 nM in the test on DLD-1. Further, the figures for the IC50 in the test with PC-3, in the test on A549 and with MCF7 were 9 nM, 22 nM and 21 nM, respectively. The same molecule had a fold change (FC) in the test filed under Bos taurus of 2.9. In addition, the Activity in the test with SK-OV-3 [2] stood at 25%.
As for `COc1ccc(-c2nnnn2-c2cc(I)c(OC)c(I)c2)cc1O`, the IC50 is 513 nM in the test on HT-29; 1.4 nM in the test with SK-OV-3 [4]; 2.4 nM in the test on HUVEC; 2.6 nM in the test on SK-OV-3 [1]; 2.2 nM in the test on MRC5; 2.4 nM in the test with DLD-1. In addition, the IC50 in the test on PC-3 stood at 0.5 nM; with A549, 2.8 nM; with MCF7 it was 1.9 nM. Further, the fold change (FC) in the test listed under Bos taurus amounted to 1.7. Moreover, the Activity in the test on SK-OV-3 [2] came out at 89%.
For the molecule `COc1ccc(/C=C\c2cc(Br)c(OC)c(Br)c2)cc1O`, the IC50 with HUVEC is 3 nM; with SK-OV-3 [1], 5 nM. The Activity with SK-OV-3 [2] is recorded as 52%.
On to `COc1ccc(-c2nnnn2-c2cc(Br)c(OC)c(Br)c2)cc1O`, for which the 50% inhibitory concentration (IC50) in the test with HT-29 is > 500 nM; in the test on SK-OV-3 [4], 5.6 nM; in the test with HUVEC, 6.6 nM; in the test on SK-OV-3 [1], 6.1 nM; in the test with MRC5, 5.7 nM; in the test with DLD-1, 8.2 nM. The half-maximal inhibitory concentration (IC50) in the test on PC-3 worked out at 2.9 nM; in the test with A549, 21 nM; in the test on MCF7, 7 nM. Also, the fold change (FC) in the test filed under Bos taurus was found to be 1.5. Besides, in the test on SK-OV-3 [2], the Activity came out at 40%.

Source of the values: ChEMBL document CHEMBL2046317, “A-ring dihalogenation increases the cellular activity of combretastatin-templated tetrazoles” (ACS Med Chem Lett, 2012).
